Reference: PubChem BioAssay (NCI)
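How tested: cells in 96-well plates exposed to compound for 48 hours at five concentrations. TGI denotes the concentration required for complete inhibition of growth.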

Columns and labels:
Assay in all cases: growth of human tumour cells (NCI), 48 h
[1] = test system: OVCAR-3 ovarian
[2] = test system: UO-31 renal
[3] = test system: HT29 colon
[4] = test system: SNB-19 CNS
[5] = test system: SF-268 CNS
[6] = test system: MDA-N
[7] = test system: NCI-H460 lung
[8] = test system: SW-620 colon
[9] = test system: CAKI-1 renal
[10] = test system: PC-3 prostate
[11] = test system: SF-295 CNS
[12] = test system: KM12 colon
[13] = test system: K-562 leukemia
[14] = test system: SK-MEL-2 melanoma
[15] = test system: DU-145 prostate
[16] = test system: NCI-H522 lung
[17] = test system: SR leukemia
[18] = test system: MCF7 breast

| Structure (SMILES) | TGI [1] [µM] | TGI [2] [µM] | TGI [3] [µM] | TGI [4] [µM] | TGI [5] [µM] | TGI [6] [µM] | TGI [7] [µM] | TGI [8] [µM] | TGI [9] [µM] | TGI [10] [µM] | TGI [11] [µM] | TGI [12] [µM] | TGI [13] [µM] | TGI [14] [µM] | TGI [15] [µM] | TGI [16] [µM] | TGI [17] [µM] | TGI [18] [µM] |
| --- | --- | --- | --- | --- | --- | --- | --- | --- | --- | --- | --- | --- | --- | --- | --- | --- | --- | --- |
| CCCCn1cnnc1NS(=O)(=O)c1cc(C)c(Cl)cc1SCC(=O)O | > 10 | > 10 | > 10 | > 10 | > 10 | > 10 | > 10 | > 10 | > 10 | > 10 | > 10 | > 10 | > 10 | > 10 | > 10 | > 10 | – | – |
| COc1ccc(C(Cc2cc(OC)c(OC)c(OC)c2)C(=O)O)cc1 (configuration not stated) | 84.7 | > 100 | > 100 | > 100 | > 100 | – | > 100 | > 100 | > 100 | – | 84.8 | > 100 | > 100 | > 100 | – | – | – | – |
| COC(=O)C1C2C=CC(C2)C1(C(=O)OC)S(=O)CC12CCC(CC1O)C2(C)C (configuration not stated) | > 100 | > 100 | > 100 | > 100 | > 100 | – | > 100 | 37.6 | > 100 | – | > 100 | > 100 | > 100 | > 100 | – | > 100 | 63.1 | – |
| C=CN1C(=O)OC[C@@H]1c1ccccc1 | > 100 | > 100 | > 100 | > 100 | > 100 | – | > 100 | 37.9 | > 100 | – | > 100 | > 100 | > 100 | > 100 | – | > 100 | – | – |
| O=c1[nH]c(=O)n(COCCO)c2ccc(Br)cc12 | > 100 | > 100 | > 100 | > 100 | – | > 100 | > 100 | > 100 | > 100 | – | > 100 | > 100 | > 100 | > 100 | > 100 | – | > 100 | > 100 |
| NC1=NNC2(C(=O)N1)c1ccccc1-c1ccccc12 | > 10 | > 10 | – | > 10 | > 10 | > 10 | > 10 | > 10 | > 10 | > 10 | > 10 | > 10 | > 10 | > 10 | – | – | > 10 | > 10 |
| CCC(CC)n1cc(C(=O)NC(=O)NCCCCCOC(=O)CCCCCCCCCCC(=O)OCCCCCNC(=O)NC(=O)c2cn(C(CC)CC)c(=O)[nH]c2=O)c(=O)[nH]c1=O | > 100 | > 100 | > 100 | > 100 | > 100 | – | > 100 | > 100 | > 100 | – | > 100 | > 100 | > 100 | – | – | > 100 | > 100 | – |
| CCn1c2ccccc2c2ccc3c(c21)C(=O)c1ccccc1C3=O | – | > 100 | > 100 | > 100 | > 100 | – | – | > 100 | – | – | > 100 | – | > 100 | – | – | > 100 | > 100 | – |
